Experimental data as given in patent US20240158348A1, “HERBICIDAL CYCLIC AMIDES N-SUBSTITUTED WITH A HALOALKYLSULFONYLANILIDE GROUP” (FMC Corporation, priority 2021, published 2024).

How the values were obtained:
Type in all cases: in vivo
[1] = tested on: goosegrass (Eleusine indica); test: Test C preemergence, goosegrass; settings: 0 is no effect, 100 is complete control
Excerpt: (§1) Seeds of plant species selected from blackgrass (Alopecurus myosuroides), corn (Zea mays), foxtail, giant (giant foxtail, Setaria faberi), goosegrass (Eleusine indica), kochia (Bassia scoparia), oat, wild (wild oat, Avena fatua), pigweed, palmer (palmer amaranth, Amaranthus palmeri), ragweed (common ragweed, Ambrosia artemisiifolia), ryegrass, Italian (Italian ryegrass, Lolium multiflorum), soybean (Glycine max) and wheat (Triticum aestivum) were planted into a blend of loam soil and sand and treated preemergence with a directed soil spray using test chemicals formulated in a non-phytotoxic solvent mixture which included a surfactant.
(§2) At the same time, plants selected from these crop and weed species and also galium (catchweed bedstraw, Galium aparine) and horseweed (Erigeron canadensis) were planted in pots containing the same blend of loam soil and sand and treated with postemergence applications of test chemicals formulated in the same manner. Plants ranged in height from 2 to 10 cm and were in the one- to two-leaf stage for the postemergence treatment. Treated plants and untreated controls were maintained in a greenhouse for 10 or 12 days, after which time all treated plants were compared to untreated controls and visually evaluated for injury. Plant response ratings, summarized in Table A, are based on a 0 to 100 scale where 0 is no effect and 100 is complete control. A dash (-) response means no test result.

[2] = tested on: wheat (Triticum aestivum); test: Test C postemergence, wheat; settings: visual injury, 0 to 100 scale (0 no effect, 100 complete control)
Excerpt: as §1, §2

[3] = tested on: oat, wild (wild oat, Avena fatua); test: Test C postemergence, wild oat; settings: visual injury, 0 to 100 scale (0 no effect, 100 complete control)
Excerpt: as §1, §2

[4] = tested on: foxtail, giant (giant foxtail, Setaria faberi); test: Test C preemergence, giant foxtail; settings: 0 is no effect, 100 is complete control
Excerpt: as §1, §2

corn (Zea mays) [5] = test: Test C preemergence, corn; settings: 0 is no effect, 100 is complete control
Excerpt: as §1, §2

[6] = tested on: foxtail, giant (giant foxtail, Setaria faberi); test: Test C postemergence, giant foxtail; settings: visual injury, 0 to 100 scale (0 no effect, 100 complete control)
Excerpt: as §1, §2

[7] = tested on: oat, wild (wild oat, Avena fatua); test: Test C preemergence, wild oat; settings: 0 is no effect, 100 is complete control
Excerpt: as §1, §2

[8] = tested on: blackgrass (Alopecurus myosuroides); test: Test C preemergence, blackgrass; settings: 0 is no effect, 100 is complete control
Excerpt: as §1, §2

[9] = tested on: ryegrass, Italian (Italian ryegrass, Lolium multiflorum); test: Test C postemergence, Italian ryegrass; settings: visual injury, 0 to 100 scale (0 no effect, 100 complete control)
Excerpt: as §1, §2

[10] = tested on: horseweed (Erigeron canadensis); test: Test C postemergence, horseweed; settings: visual injury, 0 to 100 scale (0 no effect, 100 complete control)
Excerpt: as §1, §2

[11] = tested on: ryegrass, Italian (Italian ryegrass, Lolium multiflorum); test: Test C preemergence, Italian ryegrass; settings: 0 is no effect, 100 is complete control
Excerpt: as §1, §2

[12] = tested on: goosegrass (Eleusine indica); test: Test C postemergence, goosegrass; settings: visual injury, 0 to 100 scale (0 no effect, 100 complete control)
Excerpt: as §1, §2

[13] = tested on: ragweed (common ragweed, Ambrosia artemisiifolia); test: Test C preemergence, ragweed; settings: 0 is no effect, 100 is complete control
Excerpt: as §1, §2

kochia (Bassia scoparia) [14] = test: Test C postemergence, kochia; settings: visual injury, 0 to 100 scale (0 no effect, 100 complete control)
Excerpt: as §1, §2

[15] = tested on: galium (catchweed bedstraw, Galium aparine); test: Test C postemergence, galium; settings: visual injury, 0 to 100 scale (0 no effect, 100 complete control)
Excerpt: as §1, §2

[16] = tested on: sedge, umbrella (small-flower umbrella sedge, Cyperus difformis); test: Test D flooded paddy test, umbrella sedge; set-up: key: 0 = no effect, 100 = complete control; settings: 250 g ai/ha, Flood; applied to paddy water at 2-leaf stage; visual rating after 13 days; scale 0 (no effect) to 100 (complete control)
Experimental: (§3) Plant species in the flooded paddy test selected from barnyardgrass (Echinochloa crusgalli), ducksalad (Heteranthera limosa), rice (Oryza sativa), and sedge, umbrella (small-flower umbrella sedge, Cyperus difformis) were grown to the 2-leaf stage for testing. At time of treatment, test pots were flooded to 3 cm above the soil surface, treated by application of test compounds directly to the paddy water, and then maintained at that water depth for the duration of the test. Treated plants and controls were maintained in a greenhouse for 13 days, after which time all species were compared to controls and visually evaluated. Plant response ratings, summarized in Table B, are based on a scale of 0 to 100 where 0 is no effect and 100 is complete control. A dash (-) response means no test result.

[17] = tested on: pigweed, palmer (palmer amaranth, Amaranthus palmeri); test: Test C preemergence, palmer amaranth; settings: 0 is no effect, 100 is complete control
Excerpt: as §1, §2

[18] = tested on: wheat (Triticum aestivum); test: Test C preemergence, wheat; settings: 0 is no effect, 100 is complete control
Excerpt: as §1, §2

soybean (Glycine max) [19] = test: Test C preemergence, soybean; settings: 0 is no effect, 100 is complete control
Excerpt: as §1, §2

soybean (Glycine max) [20] = test: Test C postemergence, soybean; settings: visual injury, 0 to 100 scale (0 no effect, 100 complete control)
Excerpt: as §1, §2

[21] = tested on: blackgrass (Alopecurus myosuroides); test: Test C postemergence, blackgrass; settings: visual injury, 0 to 100 scale (0 no effect, 100 complete control)
Excerpt: as §1, §2

corn (Zea mays) [22] = test: Test C postemergence, corn; settings: visual injury, 0 to 100 scale (0 no effect, 100 complete control)
Excerpt: as §1, §2

[23] = tested on: pigweed, palmer (palmer amaranth, Amaranthus palmeri); test: Test C postemergence, palmer amaranth; settings: visual injury, 0 to 100 scale (0 no effect, 100 complete control)
Excerpt: as §1, §2

[24] = tested on: ducksalad (Heteranthera limosa); test: Test D flooded paddy test, ducksalad; set-up: key: 0 = no effect, 100 = complete control; settings: 250 g ai/ha, Flood; applied to paddy water at 2-leaf stage; visual rating after 13 days; scale 0 (no effect) to 100 (complete control)
Experimental: as §3

[25] = tested on: ragweed (common ragweed, Ambrosia artemisiifolia); test: Test C postemergence, ragweed; settings: visual injury, 0 to 100 scale (0 no effect, 100 complete control)
Excerpt: as §1, §2

rice (Oryza sativa) = test: Test D flooded paddy test, rice; set-up: key: 0 = no effect, 100 = complete control; settings: 250 g ai/ha, Flood; applied to paddy water at 2-leaf stage; visual rating after 13 days; scale 0 (no effect) to 100 (complete control)
Experimental: as §3

kochia (Bassia scoparia) [26] = test: Test C preemergence, kochia; settings: 0 is no effect, 100 is complete control
Excerpt: as §1, §2

[27] = tested on: barnyardgrass (Echinochloa crusgalli); test: Test D flooded paddy test, barnyardgrass; set-up: key: 0 = no effect, 100 = complete control; settings: 250 g ai/ha, Flood; applied to paddy water at 2-leaf stage; visual rating after 13 days; scale 0 (no effect) to 100 (complete control)
Experimental: as §3

Cc1cc(C)c(N2CCC(OCC3CCCO3)C2=O)cc1NS(=O)(=O)C(F)(F)F (stereo not shown) [Compound 42]
Plant response rating (0 to 100 scale), Goosegrass ([1]; 31 g ai/ha Preemergence): 50
Plant response rating (0 to 100 scale), Goosegrass ([1]; 125 g ai/ha Preemergence): 100
Wheat plant response rating ([2]; 31 g ai/ha Postemergence): 0
Wheat plant response rating ([2]; 125 g ai/ha Postemergence): 80
Oat, Wild plant response rating ([3]; 31 g ai/ha Postemergence): 0
Oat, Wild plant response rating ([3]; 125 g ai/ha Postemergence): 40
Plant response rating (0 to 100 scale), Foxtail, Giant ([4]; 31 g ai/ha Preemergence): 20
Plant response rating (0 to 100 scale), Foxtail, Giant ([4]; 125 g ai/ha Preemergence): 100
Plant response rating (0 to 100 scale), Corn (corn (Zea mays) [5]; 31 g ai/ha Preemergence): 0
Plant response rating (0 to 100 scale), Corn (corn (Zea mays) [5]; 125 g ai/ha Preemergence): 70
Foxtail, Giant plant response rating ([6]; 31 g ai/ha Postemergence): 20
Foxtail, Giant plant response rating ([6]; 125 g ai/ha Postemergence): 90
Plant response rating (0 to 100 scale), Oat, Wild ([7]; 31 g ai/ha Preemergence): 0
Plant response rating (0 to 100 scale), Oat, Wild ([7]; 125 g ai/ha Preemergence): 30
Plant response rating (0 to 100 scale), Blackgrass ([8]; 31 g ai/ha Preemergence): 20
Plant response rating (0 to 100 scale), Blackgrass ([8]; 125 g ai/ha Preemergence): 70
Ryegrass, Italian plant response rating ([9]; 31 g ai/ha Postemergence): 20
Ryegrass, Italian plant response rating ([9]; 125 g ai/ha Postemergence): 70
Horseweed plant response rating ([10]; 31 g ai/ha Postemergence): 20
Horseweed plant response rating ([10]; 125 g ai/ha Postemergence): 80
Plant response rating (0 to 100 scale), Ryegrass, Italian ([11]; 31 g ai/ha Preemergence): 20
Plant response rating (0 to 100 scale), Ryegrass, Italian ([11]; 125 g ai/ha Preemergence): 90
Goosegrass plant response rating ([12]; 31 g ai/ha Postemergence): 40
Goosegrass plant response rating ([12]; 125 g ai/ha Postemergence): 90
Plant response rating (0 to 100 scale), Ragweed ([13]; 31 g ai/ha Preemergence): 10
Plant response rating (0 to 100 scale), Ragweed ([13]; 125 g ai/ha Preemergence): 60
Kochia plant response rating (kochia (Bassia scoparia) [14]; 31 g ai/ha Postemergence): 10
Kochia plant response rating (kochia (Bassia scoparia) [14]; 125 g ai/ha Postemergence): 60
Galium plant response rating ([15]; 31 g ai/ha Postemergence): 50
Galium plant response rating ([15]; 125 g ai/ha Postemergence): 90
Plant response rating, Sedge, Umbrella [16]: 90
Plant response rating (0 to 100 scale), Pigweed, Palmer ([17]; 31 g ai/ha Preemergence): 80
Plant response rating (0 to 100 scale), Pigweed, Palmer ([17]; 125 g ai/ha Preemergence): 100
Plant response rating (0 to 100 scale), Wheat ([18]; 31 g ai/ha Preemergence): 30
Plant response rating (0 to 100 scale), Wheat ([18]; 125 g ai/ha Preemergence): 90
Plant response rating (0 to 100 scale), Soybean (soybean (Glycine max) [19]; 31 g ai/ha Preemergence): 0
Plant response rating (0 to 100 scale), Soybean (soybean (Glycine max) [19]; 125 g ai/ha Preemergence): 90
Soybean plant response rating (soybean (Glycine max) [20]; 31 g ai/ha Postemergence): 70
Soybean plant response rating (soybean (Glycine max) [20]; 125 g ai/ha Postemergence): 80
Blackgrass plant response rating ([21]; 31 g ai/ha Postemergence): 0
Blackgrass plant response rating ([21]; 125 g ai/ha Postemergence): 50
Corn plant response rating (corn (Zea mays) [22]; 31 g ai/ha Postemergence): 20
Corn plant response rating (corn (Zea mays) [22]; 125 g ai/ha Postemergence): 90
Pigweed, Palmer plant response rating ([23]; 31 g ai/ha Postemergence): 50
Pigweed, Palmer plant response rating ([23]; 125 g ai/ha Postemergence): 70
Plant response rating, Ducksalad [24]: 95
Ragweed plant response rating ([25]; 31 g ai/ha Postemergence): 40
Ragweed plant response rating ([25]; 125 g ai/ha Postemergence): 90
Plant response rating, Rice (rice (Oryza sativa)): 15
Plant response rating (0 to 100 scale), Kochia (kochia (Bassia scoparia) [26]; 31 g ai/ha Preemergence): 20
Plant response rating (0 to 100 scale), Kochia (kochia (Bassia scoparia) [26]; 125 g ai/ha Preemergence): 90
Plant response rating, Barnyardgrass [27]: 0
